# Test results taken from patent US9107853B2, “Compositions containing phenolic compounds and hydrotropes for cosmetic use” (L'Oreal S.A., priority 2012, dated 2015).
# Experiments:
# Assay type in all cases: physicochemical
# [1] = Solubility in organic solvent PEG-4
# Text: (§1) Crystallization or precipitation occurs after mixing the glycol phase and water phase.
# [2] = Solubility in water, with or without hydrotropes, at room temperature
# [3] = Stability of solutions (pH, dilution in water)
# Text: as §1
# The solubility of baicalin can be increased by raising the concentration of hydrotropes.
compound,measurement,setting,value
O=C(O)[C@H]1O[C@@H](Oc2cc3oc(-c4ccccc4)cc(=O)c3c(O)c2O)[C@H](O)[C@@H](O)[C@@H]1O [Baicalin],amount dissolved by PEG-4,[1],3%
same,water solubility,[2],< 0.01%
same,degradation as a function of pH,[3]; aqueous,degradation happens at pH>5
same,stability of solution after dilution in water,[3]; hydrotrope solution diluted in water,still stable if diluted in water
same,stability of solution after dilution in water,"[3]; solution in organic solvent such as PEG-4, diluted in water",not stable any more
